In the COVID Moonshot data (paper PMC11187573), “Identification of SARS-CoV-2 Mpro inhibitors through deep reinforcement learning for de novo drug design and computational chemistry approaches” (RSC Medicinal Chemistry, 2024):

Experiments:
[1] = biological target: SARS-CoV-2 Main Protease (SARS-CoV-2) (UniProt P0DTD1)
[2] = biological target: SARS-CoV-2 Main Protease (SARS-CoV-2) (UniProt P0DTD1); remark: listed apart in the source

`NS(=O)(=O)c1ccc(C(=O)N2Cc3ccccc3C(c3ccccc3)C2)cc1` (stereo not drawn) showed an inhibition ([1]; 20.0 µM) of 0.809%, an inhibition ([1]; 50.0 µM) of 8.23% and a relative solubility at 20 uM of 0.95. It also gave a relative solubility at 100 uM of 0.96 and an inhibition ([2]; 20.0 µM) of 0%.
Work on `CN1C(=O)/C(=N\NC(=O)c2ccc3c(c2)OCO3)c2ccccc21` yielded an inhibition ([1]; 20.0 µM) of -16.9%, an inhibition ([1]; 50.0 µM) of -60.6% and a relative solubility at 20 uM of 0.97. For the same compound, the relative solubility at 100 uM was 0.75 and the inhibition ([2]; 50.0 µM) was -12.8%.
`CC(C)N(C)C(=O)C1CCN(C(=O)CCl)CC1` gave an inhibition ([1]; 20.0 µM) of 17.3%, an inhibition ([1]; 50.0 µM) of 38.8% and a relative solubility at 20 uM of 1. The relative solubility at 100 uM was 1 and the inhibition ([2]; 20.0 µM) was -0.0976%.
Compound `C=CC(=O)N(c1ccc(C(C)(C)CC)cc1)C(C(=O)Nc1ccc(Cl)cc1)c1cccnc1` (stereo not drawn) has an inhibition ([1]; 20.0 µM) of 16.5%, an inhibition ([1]; 50.0 µM) of 22.7% and a relative solubility at 20 uM of 0.82. The relative solubility at 100 uM was 0.68 and the inhibition ([2]; 20.0 µM) was 11.3%.
With `C=CC(=O)N(c1ccc(C(C)(C)C)cc1)C(C(=O)N[C@H]1CC[C@@H](C(=O)OC)C1)c1cccnc1` (stereo in doubt) the inhibition ([1]; 20.0 µM) was 7.31%, the inhibition ([1]; 50.0 µM) was 22.2% and the relative solubility at 20 uM was 1. For the same compound, the relative solubility at 100 uM was 0.98, the inhibition ([2]; 20.0 µM) was 0% and the inhibition ([2]; 50.0 µM) was 6.96%.
With `O=C(Nc1ccccc1)Nc1cnc2ccc([N+](=O)[O-])cc2n1` the inhibition ([1]; 20.0 µM) was -15.3%, the inhibition ([1]; 50.0 µM) was 9.06% and the relative solubility at 20 uM was 0.86. The relative solubility at 100 uM was 0.84 and the inhibition ([2]; 50.0 µM) was 0.772%.
`Cc1ccncc1NC(=O)[C@@]12COC[C@@H]1C2` (stereo in doubt) gave an inhibition ([1]; 20.0 µM) of -0.441%, an inhibition ([1]; 50.0 µM) of -2.2% and a relative solubility at 20 uM of 1. It also gave a relative solubility at 100 uM of 1 and an inhibition ([2]; 50.0 µM) of 0%.
With `C=CC(=O)N(c1ccc(C(C)(C)C)cc1)C(C(=O)NC(C)CC)c1cccnc1` (stereo not drawn) the inhibition ([1]; 20.0 µM) was 16.8%, the inhibition ([1]; 50.0 µM) was 32.5% and the relative solubility at 20 uM was 1. The relative solubility at 100 uM was 1, the inhibition ([2]; 20.0 µM) was 3.71% and the inhibition ([2]; 50.0 µM) was 23.9%.
For `O=C(NCCc1cccc2ccccc12)c1cc(=O)[nH]c2ccccc12`, the inhibition ([1]; 20.0 µM) was -40.9%, the inhibition ([1]; 50.0 µM) was 4.42% and the relative solubility at 20 uM was 0.87. For the same compound, the relative solubility at 100 uM was 0.73 and the inhibition ([2]; 50.0 µM) was 7.36%.
For `Cc1cccc(-c2nnnn2C2CC2C)c1NC(=O)CCc1cccnc1` (stereo not drawn), the inhibition ([1]; 50.0 µM) was -16.5%, the relative solubility at 20 uM was 1 and the relative solubility at 100 uM was 1. It also gave an inhibition ([2]; 20.0 µM) of 0% and an inhibition ([2]; 50.0 µM) of 13.5%.
For `CCOCC(=O)NCc1ccc(CNC(=O)Cn2nnc3ccccc32)cc1`, the inhibition ([1]; 20.0 µM) was 1.82%, the inhibition ([1]; 50.0 µM) was 1.31% and the relative solubility at 20 uM was 0.99. The relative solubility at 100 uM was 1 and the inhibition ([2]; 50.0 µM) was 0%.
In the case of `COC(=O)C(Cc1ccccc1)C(C)NC(=O)C(C)n1ccnc1` (stereo not drawn), the inhibition ([1]; 50.0 µM) is reported as 11.9%, the relative solubility at 20 uM is reported as 1 and the relative solubility at 100 uM is reported as 1. The inhibition ([2]; 20.0 µM) was 0% and the inhibition ([2]; 50.0 µM) was 0%.
`C=CC(=O)N(c1ccc(C2(C)CC2)cc1)C(C(=O)Nc1cccc(CC)c1)c1cccnc1` (stereo not drawn) gave an inhibition ([1]; 50.0 µM) of 21%, a relative solubility at 20 uM of 0.86 and a relative solubility at 100 uM of 0.65. It also gave an inhibition ([2]; 20.0 µM) of 4.53% and an inhibition ([2]; 50.0 µM) of 47.2%.
For `C/C=C/C(=O)Nc1cccc(OC2CC(=O)N2)c1` (stereo not drawn), the inhibition ([1]; 20.0 µM) was -3.03%, the inhibition ([1]; 50.0 µM) was 4.68% and the relative solubility at 20 uM was 1. It also gave a relative solubility at 100 uM of 1 and an inhibition ([2]; 50.0 µM) of 0%.
Work on `C=CC(=O)N(c1ccc2ncsc2c1)C(C(=O)Nc1cccc(CC)c1)c1cccnc1` (stereo not drawn) yielded an inhibition ([1]; 20.0 µM) of 33.9%, an inhibition ([1]; 50.0 µM) of 59.3% and a relative solubility at 20 uM of 0.8. The relative solubility at 100 uM was 0.63, the IC50 [2] was 32 µM and the inhibition ([2]; 20.0 µM) was 16.6%.
`COc1ccccc1OCCN(C)C(=O)c1cc(=O)[nH]c2ccc(Cl)cc12` showed an inhibition ([1]; 20.0 µM) of 0.453%, an inhibition ([1]; 50.0 µM) of 4.43% and a relative solubility at 20 uM of 1. It also gave a relative solubility at 100 uM of 0.99 and an inhibition ([2]; 50.0 µM) of 0%.
With `C=CC(=O)N(c1cc(C(C)(C)C)n[nH]1)C(C(=O)Nc1c(C)cccc1CC)c1cccnc1` (stereo not drawn) the inhibition ([1]; 20.0 µM) was 4.05%, the inhibition ([1]; 50.0 µM) was 4.71% and the relative solubility at 20 uM was 0.92. For the same compound, the relative solubility at 100 uM was 0.78 and the inhibition ([2]; 20.0 µM) was 0%.
In the case of `O=C(NC1CCCCC1NC(=O)C1CCCCC1)c1ccncc1` (stereo not drawn), the inhibition ([1]; 20.0 µM) is reported as -14.4%, the inhibition ([1]; 50.0 µM) is reported as -20.6% and the relative solubility at 20 uM is reported as 1. The relative solubility at 100 uM was 1 and the inhibition ([2]; 20.0 µM) was 0%.
In the case of `C=CC(=O)N(c1cc(C(C)(C)C)on1)C(C(=O)Nc1cccc(CC)c1)c1cccnc1` (stereo not drawn), the inhibition ([1]; 20.0 µM) is reported as 15.6%, the inhibition ([1]; 50.0 µM) is reported as 43.1% and the relative solubility at 20 uM is reported as 0.87. For the same compound, the relative solubility at 100 uM was 0.76 and the inhibition ([2]; 20.0 µM) was 6.79%.
`O=C(NC(Cc1ccccc1)C(=O)NCc1ccno1)OCc1ccccc1` (stereo not drawn) gave an inhibition ([1]; 50.0 µM) of 50.6%, a relative solubility at 20 uM of 0.98 and a relative solubility at 100 uM of 0.85. It also gave an inhibition ([2]; 20.0 µM) of 0% and an inhibition ([2]; 50.0 µM) of 0%.
`C=CC(=O)N(c1ccc(N(C)C)c(C)c1)C(C(=O)Nc1ccc(OC)cc1C)c1cccnc1` (stereo not drawn) showed an inhibition ([1]; 20.0 µM) of 2.51%, an inhibition ([1]; 50.0 µM) of 7.01% and a relative solubility at 20 uM of 0.87. For the same compound, the relative solubility at 100 uM was 0.83 and the inhibition ([2]; 20.0 µM) was 0%.
In the case of `C=CC(=O)N(c1ccc2ncsc2c1)C(C(=O)NC(C)(C)C)c1cccnc1` (stereo not drawn), the inhibition ([1]; 20.0 µM) is reported as 9.29%, the inhibition ([1]; 50.0 µM) is reported as 0.772% and the relative solubility at 20 uM is reported as 1. The relative solubility at 100 uM was 1 and the inhibition ([2]; 20.0 µM) was 0%.
Work on `Cc1ccncc1NC(=O)[C@@H]1C[C@H]1CF` (stereo in doubt) yielded an inhibition ([1]; 20.0 µM) of 4.1%, an inhibition ([1]; 50.0 µM) of 3.57% and a relative solubility at 20 uM of 1. The relative solubility at 100 uM was 1 and the inhibition ([2]; 50.0 µM) was 3.35%.
For `NS(=O)(=O)c1ccc(N2CCC(Nc3ccccc3)CC2)cc1`, the inhibition ([1]; 50.0 µM) was 9.57%, the relative solubility at 20 uM was 1 and the relative solubility at 100 uM was 1. The inhibition ([2]; 20.0 µM) was 27.2% and the inhibition ([2]; 50.0 µM) was 22%.
Work on `CC(=O)NCCc1cn(CC(=O)N2CCOCC2)c2ccccc12` yielded an inhibition ([1]; 50.0 µM) of 6.56%, a relative solubility at 20 uM of 0.97 and a relative solubility at 100 uM of 0.96. It also gave an inhibition ([2]; 20.0 µM) of 0% and an inhibition ([2]; 50.0 µM) of 0%.
`Cc1ccc(S(=O)(=O)N2CCN(C(=O)c3cc(=O)[nH]c4cc(F)ccc34)CC2)c(C)c1` gave an inhibition ([1]; 20.0 µM) of 21.8%, an inhibition ([1]; 50.0 µM) of 48.1% and a relative solubility at 20 uM of 1. The relative solubility at 100 uM was 0.92 and the inhibition ([2]; 50.0 µM) was 11.4%.
Compound `C=CC(=O)N(c1ccc(C2CCOC2)cc1)C(C(=O)NC(C)(C)C)c1cccnc1` (stereo not drawn) has an inhibition ([1]; 20.0 µM) of -11.9%, an inhibition ([1]; 50.0 µM) of 4.28% and a relative solubility at 20 uM of 1.01. The relative solubility at 100 uM was 1.01 and the inhibition ([2]; 20.0 µM) was 0%.
`Cc1ccncc1NC(=O)CCOC1CC1` showed an inhibition ([1]; 20.0 µM) of 8.26%, an inhibition ([1]; 50.0 µM) of 22% and a relative solubility at 20 uM of 1. It also gave a relative solubility at 100 uM of 1 and an inhibition ([2]; 50.0 µM) of 0%.
Work on `O=C(c1cc(=O)[nH]c2ccc(F)cc12)N1CCN(S(=O)(=O)c2ccccc2)CC1` yielded an inhibition ([1]; 20.0 µM) of 3.84%, an inhibition ([1]; 50.0 µM) of 11.9% and a relative solubility at 20 uM of 0.98. For the same compound, the relative solubility at 100 uM was 0.98 and the inhibition ([2]; 50.0 µM) was 16.2%.
